According to a melting point compilation (Tetko et al.; mined from patent text by program, amines drawn as free bases though some values may be those of a salt):

| melting point [°C] | SMILES |
| --- | --- |
| 102 to 103 | O=S(=O)(NCC(O)CN1c2ccccc2CCc2ccccc21)c1ccc(OC(F)(F)F)cc1 (stereo not given) |
| 206 to 207 | CC(Cl)(Cl)C(NC(=O)c1ccc(Cl)cc1)NC(=NC#N)Nc1ccc(F)nc1 (stereo not given) |
| 71 to 72 | CCCc1cc2ccccn2c1C(C)=O |
| 169 to 171 | O=c1c2c(Cl)cc(Cl)cc2n(Cc2ccccc2)c(=O)n1CCc1ccccc1 |
| 151 to 153 | CCOC(=O)C(=O)Nc1cccc(OCc2ccccc2)c1C(N)=O |
| 75 to 76 | Brc1cccc(Sc2ncccc2OCCCc2cccnc2)c1 |
| 185 | Cc1cc(COc2ccc(S(=O)(=O)NC[C@@H](C(=O)NO)N3CCN(S(C)(=O)=O)CC3)cc2)c2ccccc2n1 |
| 255 to 257 | CCCn1c(=O)c2[nH]c(-c3cc(C)n(CC(=O)Nc4ccccc4)n3)nc2n(CCC)c1=O |
| 100 | Cc1ccc(N(Cc2ccc(N(C)C)cc2)C(=O)Nc2c(C(C)C)cccc2C(C)C)c(C)c1 |
| 91 | O=C(CCCC(=O)N1C(=O)OC[C@@H]1c1ccccc1)c1ccc(F)cc1 |
| 153 to 155 | CCOC(=O)c1cncnc1Nc1ccccc1NC |
| 170 | COCc1ccc(C2(O)CCN(CC(O)c3ccc(O)cc3)CC2)cc1 (stereo not given) |
| 84 | COc1ccccc1-c1cc(F)cc2c1NC(CN)CO2 (stereo not given) |
| 184 | Cc1ncc2c(c1OCC(=O)O)COC2(C)c1ccc(Cl)cc1 (stereo not given) |
| 276 to 280 | C1=c2cc3c(cc2Sc2ccccc21)=Cc1ccccc1S3 |
| 102 to 103 | COC(=O)NCC1CC(c2ccccc2)=NO1 (stereo not given) |
| 76 to 78 | O=C(O)CCCCCCCCCCn1c(-c2ccccc2)nc(-c2ccccc2)c1-c1ccccc1 |
| 178 to 179 | COc1ccc(C(=O)N2c3ccccc3C(n3c4ccccc4c4ccccc43)CC2CCCCCN2CCN(c3ccc(F)cc3)CC2)cc1OC (stereo not given) |
| 259 to 261 | CCc1c(O)cc(O)c(C(=O)c2ccccc2)c1CC(=O)N1CCN(c2ccccc2C#N)C(=O)C1 |
| 135 | COc1ccc2c(=O)c(-c3ccc(C)cc3)coc2c1OC |
| 61 | CCCCCc1ccc(OC(=O)c2ccc(OCC)c(F)c2F)cc1 |
| 208 | O=C1c2ccccc2C(O)(c2ccccc2)N1CCc1ccccc1F (stereo not given) |
| 128 | CCC(O)(CC)c1cc(C)c(-c2cc(OCc3ccc(CO)c(CO)c3)ccc2C)c(C)c1 |

| melting point [°C] | SMILES |
| --- | --- |
| 222 to 225 | CCCCc1ncc(CC(NC(=O)C(c2ccccc2)c2ccccc2)C(=O)O)n1Cc1ccccc1Cl (stereo not given) |
| 92 to 93 | CCCCOc1cc(CCC(=O)O)ccc1OCCCc1cn(-c2ccc(C(F)(F)F)cn2)nc1OCC |
| 153 | CC(=O)OC1CSC(Oc2cccc(-c3cccnc3C)c2)C(OC(C)=O)C1OC(C)=O (stereo not given) |
| 129 to 130 | O=C(c1cc2ccccc2s1)C1CCN(CCc2ccccc2)CC1 |
| 134 to 135 | OC1(c2ccc(Cl)cc2)CCN(CCCOc2ccc(F)cc2)CC1 |
| 256 to 258 | COc1ccc(S(=O)(=O)N(Cc2cccnc2)c2c(C(=O)O)cnc3c2c(C)nn3C)cc1 |
| 210 to 215 | O=C(O)c1cccc(Oc2cccc(-c3nn(Cc4ccc(C(F)(F)P(=O)(O)O)c(Br)c4)c(=Nc4ccc(Cl)c(Cl)c4)s3)c2)c1 |
| 116 to 117 | COc1ccc2c(c1)-c1c(nn(-c3ccccn3)c1O)CC2 |
| 159 | CCCNC(=O)C1(CC=Cc2ccccc2)c2ccccc2CCc2ccccc21 |
| 165 to 169 | Cn1c(-c2ccc(-n3ccnc3)cc2)cnc1[C@H](Cc1ccccn1)N(C=O)c1cc2ccc(Cl)cc2o1 |
| 55 | Fc1cc(N2CCN(CCc3coc4ccc(F)cc34)CC2)c2ncccc2c1 |
| 158 to 159 | Cc1nn(CCC(C)O)c(-c2ccc(F)cc2)c1-c1ccc2c(c1)NC(=O)CO2 (stereo not given) |
| 176 to 179 | CCCCOc1cc(C=CC(=O)O)n(Cc2ccc(Cl)cc2Cl)n1 |
| 43 to 45 | CCCCCCCCCCCCCCCCCCOc1cccc(CC(=O)OC)c1 |
| 158 to 159 | NS(=O)(=O)c1ccc(-n2nc(C=NOCc3ccccc3)cc2-c2ccc(Cl)cc2)cc1 |
| 189 to 191 | CC(=O)Oc1nc2c(N)ncnc2n1Cc1ccccc1 |
| 157 | CN(C(=O)N[C@@H](Cc1ccc(Nc2nccc3ccncc23)cc1)C(=O)O)c1ccccc1Cc1ccccc1 |
| 143 to 145 | COc1cc(NS(=O)(=O)CC(=O)c2ccccc2)c2c(c1)OC(C)C2 (stereo not given) |
| 175 | Cc1ccc(C(C)(C)C)c(SC2=C(O)CC(CCc3ccccc3)(c3ccc(OCCN4CCNCC4)cc3)OC2=O)c1 (stereo not given) |
| 128 to 129 | Cc1oc(-c2ccccc2)nc1COc1ccc(CO)cc1 |
| 100 to 102 | COc1cc(C(=O)N(C)OC)c2oc(-c3ccc(OC)c(F)c3)cc2c1 |
| 82 to 86 | COc1ccc(CC(O)CO)c(OCc2ccccc2)c1 (stereo not given) |

Further lines, the compound ahead of its results:

| SMILES | melting point [°C] |
| --- | --- |
| O=C(O)C(CC1CCCC1)c1ccc(S(=O)(=O)C2CCCC2)cc1 (stereo not given) | 165 to 167 |
| COC(=O)c1nc(-c2ccc(Cl)c(OC)c2F)nc(N)c1OC | 155 to 158 |
| Cc1cc(Cl)c(C)c(C(=O)O)c1 | 168 to 170 |
| O=C(Nc1ccc(O[C@H]2CC[C@H](C(=O)O)CC2)cc1)c1nnc(Nc2cc(F)c(F)cc2F)o1 | 251 to 253 |
| CN(Cc1cccc2c1C(=O)N(C1CCC(=O)NC1=O)C2=O)C(=O)C1CC1 (stereo not given) | 243 to 245 |
| Cc1cc2c(c3ccc(=O)[nH]c13)OC(CNC(=O)CN(C)C(=O)OC(C)(C)C)C2 (stereo not given) | 190 to 191 |
| CCOC(=O)COC1CCN(C(=O)[C@H](C)CC(=O)c2ccc(C#N)cc2)CC1 | 97 to 98 |
| O=Cc1c(O)c(O)cc([N+](=O)[O-])c1CCCC(=O)O | 164 to 168 |
| CC(=O)N1CCN(c2ccc([N+](=O)[O-])c(C)c2)CC1 | 133 to 137 |
| COc1cc(N)c(Cl)cc1C(=O)N[C@H]1CCN(C2CCC3(CC2)OCC(C)(C)CO3)C[C@H]1OC (relative stereo) | 188 |
| NC(=O)c1sc2nccc(N3CCCN(c4cccc([N+](=O)[O-])c4)CC3)c2c1N | 180 to 185 |
| CC(C)(C)C(=O)C(C(O)C(Cl)(Cl)Cl)n1cncn1 (stereo not given) | 220 to 222 |
| CC(NC(=O)Oc1cccc2c1C1(C)CCN(C)C1N2C)c1ccccc1 (stereo not given) | 151 to 155 |
| CC[C@H](Cn1cnnn1)n1cnc2cc3c(=O)n([C@H](C)Cn4ncnn4)nnc3cc2c1=O | 198 to 200 |
| CCC(CC)Nc1cc(C)nc(Oc2c(C)cc(Cl)cc2C)c1[N+](=O)[O-] | 152 to 154 |
| CCCCCCC1(CCCCCC)c2cc(C#N)ccc2-c2ccc(C#N)cc21 | 116 to 118 |
| C1=C(c2c[nH]c3ccccc23)CCNC1 | 185 to 186 |
| COCc1nc2cc3c(cc2c(=O)[nH]1)C(Nc1ccc(C(=O)OC(C)(C)C)cc1)CC3 (racemic) | > 122 |
| Cc1cc(C)cc(CON2C(=O)COc3ccc(C=C4SC(=S)NC4=O)cc32)c1 | > 300 |
| O=c1oc2ccccc2cc1CCN1CCC(Nc2nc3ccccc3n2Cc2cccs2)CC1 | 165 |
| CCCC1CCc2cc(OC)c(Cl)c(Cl)c2C1=O (stereo not given) | 127 to 129 |
| Cc1cn(N=Cc2cccnc2)c(=O)n1CC#N | 195 to 198 |
| CCN1C(=O)C(C)(C)C(=O)N(C)c2cc(CCN(CCn3cc(C)c4oc(C)cc4c3=O)Cc3cnccc3C)ccc21 | 155 to 156 |
| CC(C)Nc1nc2cc(F)c(F)cc2[nH]1 | 188 to 189 |
| N#CC1CN1C(=O)NC(=O)COc1ccccc1 (stereo not given) | 134 to 136 |

| SMILES | melting point [°C] |
| --- | --- |
| Cc1c(C2=NC(C)(C)CO2)cccc1[N+](=O)[O-] | 60 to 61 |
| COc1ccccc1N1CCN(CCC(C#N)(c2ccccc2)c2ccccc2[N+](=O)[O-])CC1 (stereo not given) | 61 to 64 |
| COc1ccc(-c2ccc3cnc(Nc4ccc(N5CCN(CC(N)=O)CC5)c(F)c4)nn23)cn1 | 217 |
| O=C1c2cccc3cc4ccccc4c(c23)C(=O)N1CCCNCCCN1C(=O)c2cccc3cc4ccccc4c(c23)C1=O | 184 |
| CC(C)(C)OC(=O)c1ncn2c1[C@@H]1CCCN1C(=O)c1c-2cccc1S(C)(=O)=O | 244 |
| COC(=O)C1CC(C#N)(c2ccc(OC)c3c2OC(C)(C)O3)CCC1=O (stereo not given) | 146 to 147 |
| CCCCC[C@@H](CC(=O)NO)C(=O)N[C@H](CC(C)C)C(=O)N[C@@H](C)C(N)=O | 134 to 136 |
| Cc1nc[nH]c1CSCCNC1=NCCS(=O)(=O)N1 | 146 to 147 |
| O=[N+]([O-])c1cc(Cl)ccc1NS(=O)(=O)c1ccc(Cl)cc1 | 122 to 123 |
| O=C1C(=O)N(CCCN2CCN(C3c4ccccc4CCc4ccccc43)CC2)c2ccccc21 | 159 to 162 |
| COC(=O)CCN(C(=O)CC(O)C(=O)O)N1CCCCC1 (stereo not given) | 54 to 57 |
| CCOC(=O)c1cn(C)c2cc(C)sc2c1=O | 143 to 144 |
| CCOC(=O)c1cc2c(nc1C)C(=Cc1cccs1)CCC2 | 117 to 118 |
| C1CCN(ON2CCCC2)C1 | 99 |
| c1cc(P(CCP(c2ccncc2)c2ccncc2)c2ccncc2)ccn1 | 183 to 185 |
| CCCc1cc2c(c(C)c1O)CCO2 | 72 to 73 |
| CC1(C)CC(=O)C(Br)(Cc2ccc(Cl)cc2)C(Br)C1 (stereo not given) | 82 to 84 |
| N#CC(=O)c1ccccc1Br | 64 |
| Cc1ccc(C2c3c(C)c4c(c(C)c3OC2(C)C)CCN4)cc1 (stereo not given) | 135 to 136 |
| Nc1ccccc1C(=O)c1ccc(Br)cc1 | 104 to 106 |
| CS(=O)(=O)c1ccc(-c2cnn(-c3cccc(Cl)c3)c(=O)c2C2CCCC2)cc1 | 155 to 157 |
| CN(c1cc(OC(F)(F)F)cc2cc(C3=NCC(CC(=O)O)S3)[nH]c12)S(=O)(=O)c1cccs1 (stereo not given) | 225 to 227 |
| C=C1CC2C(CCC3(C)C2CCC3(OC)C(=O)COC(C)=O)C2(C)CCC(=O)C=C12 (stereo not given) | 142 to 143 |
| CCOC(=O)[C@H]1O[C@@H]1C(=O)N[C@H](COCC(C)C)C(C)C | 40.5 to 45 |
| CC1=C(C(=O)Nc2cccc(C(=O)OC(C)C)c2)SCCO1 | 92 to 94 |
